Results on 3 compounds are retold here after patent US6641849B1, “Composition for the prevention and/or treatment of circulatory disorders, comprising derivatives of L-carnitine and extracts of ginkgo biloba” (Sigma-Tau HealthScience S.p.A., priority 1999, dated 2003).

Test [1] relates to collagen-induced platelet aggregation. The experiment in a line: Platelet aggregation tests. Conditions: collagen 2.5 μg/ml, 10 minutes' incubation; for ED50 (platelet aggregation): human blood. It counts as cell-based, human (healthy volunteers).
Description: In these tests, blood samples were taken from healthy volunteers with a platelet content of at least 300,000/mm^3. The method described by Born (Born J. V. R. J. Physiol., 26:25 1963) was used to induce platelet aggregation.
Platelet aggregation was induced by collagen (2.5 μg/ml) and measured both at the beginning and after 10 minutes' incubation with propionyl L-carnitine, acetyl L-carnitine, Ginkgo biloba extract or with these compounds in various combinations.
The subject of test [2] is pitressin-induced coronary spasm. Briefly: Coronary spasm tests (pitressin). It is filed as in vivo, rat. Conditions: oral, three days before pitressin i.v.; Ginkgo biloba extract 100 mg/kg, carnitines or carnitine mixture 300 mg/kg; number of rats. The text has this:
Enhancement of the activity of Ginkgo biloba when combined with carnitines was also found on evaluating the effects of the administration of these substances alone and in combination on pitressin-induced experimental coronary spasm.
As is known, intravenous injection of 1 v/kg of pitressin in the rat causes characteristic electrocardiographic abnormalities which are most noticeable in lead II as affecting the T wave (asphyxial T wave) due to the diminished myocardial oxygenation related to the reduced coronary flow caused by the pitressin-induced vascular spasm.
In these tests, before being injected with pitressin, the rats received oral administrations for three days consecutively of 100 mg/kg of Ginkgo biloba extracts, or of 300 mg/kg of carnitines alone or carnitine mixture, or of carnitine or carnitine mixture in combination with Ginkgo biloba.

Test [3] concerns PAF-induced oedema of the rat paw. The experiment in a line: PAF-induced inflammatory reaction tests (paw oedema, plethysmographic). It is filed as in vivo. The settings on record: 300 mg/kg i.p. one hour before PAF 2 μg into rear paw, rats. As for the experimental part:
In these experiments, a solution containing PAF was injected into the paws of rats according to the method described by Burstein (Burstein S. H., J. Pharmacol. Exptl. Ther., 251:531, 1989).
As is known, PAF injected into the rat paw causes the release of numerous phlogogenic substances, including prostaglandins, which gives rise in a short time to the onset of marked oedema (Bonnet J., J. Agent Actions, 11:559, 1981).
Using the method described by Goldenberg (Goldenberg M. M., Prostaglandins, 28:271, 1984) and Silva (Silva P. M. R., Inflammation, 10:393, 1986), a solution of PAF at an overall dose of 2 μg was injected into the rear paws of rats, and the ensuing oedematous reaction was evaluated with a plethysmographic method according to the technique described by Ferreira (Ferreira S. H., J. Pharmacol., 127:83, 1979).
The tests were conducted in various groups of rats, one of which was a control group, while the others received intraperitoneal administrations, one hour before to PAF injection, of acetyl L-carnitine (300 mg/kg), or propionyl L-carnitine (300 mg/kg), or of a combination of L-carnitine (75 mg/kg), acetyl L-carnitine (75 mg/kg) and propionyl L-carnitine (75 mg/kg), or of a Ginkgo biloba extract (100 mg/kg), or of the Ginkgo biloba extract plus carnitines.

Test [4] deals with cerebral ischaemia induced by endothelin-1 (MCA occlusion). Briefly: Tests of protection against experimentally induced cerebral ischaemia (endothelin-1, MCA occlusion). It is filed as in vivo. Conditions: rat; i.v. 5 minutes after endothelin-1; propionyl/acetyl L-carnitine 50 mg/kg, Ginkgo biloba 10 mg/kg; checked after 3 days. On the procedure: Since a major responsible for causing damage following cerebral ischaemia is known to be the production of superoxides and free radicals (Litton S. A., Nature, 364:625, 1993), in these tests cerebral ischaemia was brought about by occluding the middle cerebral artery (MCA) of the rat according to the method described by Scharkey (Scharkey Y., Nature, 371:336, 1994) by injecting to the anaesthetized animal endothelin-1 (120 pml), for a duration of 3 minutes with a microcannula placed stereotactically in the pyriform cortex at the level of the middle cerebral artery (MCA).
The ischaemic area thus produced was checked after 3 days with transcardiac perfusion of paraformaldehyde solution (4% in PBS).
After removing the brain and placing it in a fixator containing 10% saccharose, cryostat sections were fixed in methyl violet and examined under the optical microscope.
The administration of propionyl L-carnitine (50 mg/kg), acetyl L-carnitine (50 mg/kg) and of a solution of Ginkgo biloba (10 mg/kg), or these compounds in combination, was performed intravenously 5 minutes following injection of endothelin-1.
The volume of the infarcted area was calculated according to the method described by Park (Park C., Anns. Neurol., 20:150, 1989).

Test [5] has as its system PAF-induced mortality. The experiment in a line: PAF-induced mortality tests. It counts as in vivo, albino mice. The settings on record: 300 mg/kg i.p. one hour before PAF 20 μg/kg i.v., mice. On the procedure: Platelet-activating factor (PAF) is an acetylated alkyl phosphoglyceride whose release in the body, under various stimuli, causes circulatory-type reactions related mainly to increased capillary permeability, with consequent extravasation of blood, increased platelet aggregation and thrombosis, reduced coronary flow, release of inflammatory factors, lysosomal enzymes and superoxides.
When administered intravenously (20 μg/kg) to animals, PAF causes the death of the animals treated with it in a short space of time, i.e. approximately one hour, mainly as a result of cardiocirculatory collapse.
A series of tests was conducted using the method described by Young (Young J. N., Prostaglandins 30:545, 1985) and by Myers (Myers H., Br. J. Pharmacol., 79:595, 1983) in order to assess whether Ginkgo biloba extracts (whose anti-PAF activity is known) protect animals injected with PAF against death and whether the carnitines (particularly propionyl L-carnitine, whose vascular regulatory activity is known) are capable of increasing the protective effect against PAF.
The tests were conducted on albino mice with a mean weight of 25 g divided into various groups, the first of which served as control group and received intravenous injections of PAF at the dose of 20 μg/kg, while the other groups were administered intraperitoneal injections, one hour before to PAF administration, either of Ginkgo biloba extract, or of the various carnitines alone or in combination, or of Ginkgo biloba plus carnitines.

The test system of test [6] is pheochromocytoma cells (PC-12). Briefly: Tests of H2O2 toxicity on pheochromocytoma cells (PC-12). It counts as cell-based. Conditions: 10^−8 M; PC-12, H2O2 30 minutes, 24 hours of observation; H2O2 alone approximately 38%.
Description: In these tests, a pheochromocytoma cell (PC-12) culture was used containing 3×10^5 M cells/ml which was submitted for 30 minutes to 0.1 g mM H2O2.

Consider `CC(=O)O[C@H](CC(=O)[O-])C[N+](C)(C)C` [Acetyl L-carnitine, acetyl L-carnitine], for which, in test [1], the “reduction of platelet aggregation (in words)” value was “only to a slight extent” and the “ED50 (platelet aggregation)” value came to 26.4 ± 0.34 µg. Moreover, in test [2], the Rats not protected came out at 3, the Rats protected is 1 and the Rats weakly protected was found to be 3. Further, the “% reduction of oedema” value in test [3] worked out at 15%. In test [4], the “magnitude of ischaemia (volume mm^3) due to MCA occlusion” value is on record as 21.6 ± 1.8 mm^3. Besides, the “% mortality 1 h after PAF injection” value in test [5] is 80/100. Also, in test [6], the “survival of the cells” value was 55%.

For the compound `C[N+](C)(C)C[C@H](O)CC(=O)[O-]` [L-carnitine], in test [2], the Rats not protected was determined as 3, the Rats protected amounted to 0 and the Rats weakly protected was determined as 1. In test [3], the “% reduction of oedema” value is 10%. Also, the “% mortality 1 h after PAF injection” value in test [5] was 90/100.

Consider `CCC(=O)O[C@H](CC(=O)[O-])C[N+](C)(C)C` [Propionyl L-carnitine, propionyl L-carnitine], for which, in test [1], the “reduction of platelet aggregation (in words)” value is on record as “only to a slight extent” and the “ED50 (platelet aggregation)” value stood at 30.5 ± 0.41 µg. Moreover, in test [2], the Rats not protected worked out at 4, the Rats protected was 2 and the Rats weakly protected amounted to 3. The “% reduction of oedema” value in test [3] is 35%. Further, the “magnitude of ischaemia (volume mm^3) due to MCA occlusion” value in test [4] is on record as 32.6 ± 2.4 mm^3. For the same compound, in test [5], the “% mortality 1 h after PAF injection” value is 80/100. The “survival of the cells” value in test [6] was determined as 45%.
